Reference: patent US5616684A, “Cyclic peptides and use thereof” (priority 1991, dated 1997)
Non-standard residues stand in square brackets, D forms with d. Residues, ends and D or L forms follow the SMILES beside them. *: point of attachment. NMeW = CN[C@@H](Cc1c[nH]c2ccccc12)C(=O)O; NMeF = CN[C@@H](Cc1ccccc1)C(=O)O; dTle = CC(C)(C)[C@@H](N)C(=O)O; NMeL = CN[C@@H](CC(C)C)C(=O)O; X3 = O=C(Cc1c[nH]c2ccccc12)*; Orn = NCCC[C@H](N)C(=O)O; PhAc = O=C(Cc1ccccc1)*; Sar = CNCC(=O)O

Experiments:
[1] = molecular target: T1, endothelin receptor A (ETA) (Sus scrofa, UniProt Q29010); test: Assay of Affinity for Receptor (1): Binding Activity on ETA Receptor; design: key to Binding Activity on ET Receptor (R. act.) ETA: relative binding activity; reference cyclic pentapeptide = 1.0; settings: specific activity, binding activity of cyclo[-D-Glu-Ala-D-aIle-Leu-D-Trp-] taken as 1.0; porcine heart membrane fraction, 125I-labeled endothelin-1, 25° C., 1 hour
T1 construct: A membrane fraction prepared from the porcine heart; from tissue; host or cells: porcine heart membrane fraction
T1 sequence (Q29010 21-427): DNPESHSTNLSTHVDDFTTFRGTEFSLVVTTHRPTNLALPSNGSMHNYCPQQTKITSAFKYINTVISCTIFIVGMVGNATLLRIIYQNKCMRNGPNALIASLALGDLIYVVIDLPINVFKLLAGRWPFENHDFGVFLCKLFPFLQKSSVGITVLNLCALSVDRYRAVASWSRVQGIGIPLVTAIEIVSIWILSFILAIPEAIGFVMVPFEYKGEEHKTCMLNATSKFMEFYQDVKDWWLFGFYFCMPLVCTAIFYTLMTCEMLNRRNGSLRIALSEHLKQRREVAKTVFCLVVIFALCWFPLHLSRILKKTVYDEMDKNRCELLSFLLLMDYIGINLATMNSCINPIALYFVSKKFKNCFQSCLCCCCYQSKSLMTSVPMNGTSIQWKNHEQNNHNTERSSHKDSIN
Experimental: Assay of Affinity for Receptor (1) . . . Binding Activity on ETA Receptor
A membrane fraction prepared from the porcine heart was diluted to 0.15 mg/ml by using a buffer solution for assay, and 100 μl of the resulting suspension of the membrane fraction was poured into each assay tube to use for assay. To this suspension of the membrane fraction was added 2 μl of 5 nM ^125 I-labeled endothelin-1 solution. Further, 3 μl of a test peptide solution was added thereto, followed by incubation at a temperature of 25° C. for 1 hour. Then, the resulting suspension was diluted with 900 μl of the buffer solution for assay cooled with ice, and thereafter separated into a supernatant and a precipitate by centrifugation at 12,000×g for 10 minutes. Cell membranes and an endothelin receptor A (ETA) embedded therein were contained in the precipitate, and radioactive iodine-labeled endothelin combined with the receptor was also recovered in the precipitate. Accordingly, the amount of radioactive iodine-labeled endothelin combined with the endothelin receptor A (ETA) was determined by measuring the amount of radioactive iodine contained in the precipitate with a gamma-ray counter. The cyclic pentapeptide described in Japanese Patent Application No. 2-413828/1990, cyclo[-D-Glu-Ala-D-aIle-Leu-D-Trp-], was used as a control compound. The numerical value of ETA shown in Table 1 is the value of specific activity, taking the binding activity of this cyclic pentapeptide on the receptor A as 1.0. The binding activity (IC50) of this cyclic pentapeptide on the ETA receptor is 2×10^-6 M.

[2] = system: ETB receptor (guinea pig kidney crude receptor membrane fraction); test: ETB Radio Receptor Assay *2; format: binding; settings: relative activity (Example 8 given as 100), 125I-endothelin-1, 37° C., 90 minutes
Experimental: ETB Radio Receptor Assay *2
In the endothelin radio receptor assay, guinea pigs' kidneys were used. Guinea pigs (Std Hartrey, male 250 g, Japan SLC Ltd.) were made to have a cerebral concussion and sacrificed by bleeding from carotid arteries to pick up the kidneys and removed fat therefrom to prepare the kidneys. The obtained kidneys were sliced and homogenized by politron homogenizer in 20 ml of 50 mM Tris-HCl buffer [pH 7.4; 20 mM NaHCO3, 0.1 mM PMSF (Phenylmethylsulfonyl Fluoride), 1 mM EDTA (Ethylenediaminetetraacetic acid)] per one kidney. The homogenized kidney was applied to a centrifugation at 1,000×g for 15 minutes and the supernatant was further applied to a centrifugation for 20 minutes at 30,000×g. The resulting precipitate was twice washed with 50 mM Tris-HCl buffer (pH 7.4) containing 0.1 mM PMSF, 1 mM EDTA. The resultant was stored at -80 ° C. as a crude receptor membrane fraction and was used as the suspension in the following buffer when necessary.
740 Bq of ^125 I-endothelin-1 (81.4 TBq/mmol, Du Pont, USA) as a radio ligand, the crude membrane fraction (2.1 μg protein) and samples were added to the following buffer. The reaction was performed at 37° C., for 90 minutes in 0.2 ml of the buffer [50 mM Tris-HCl buffer (pH 7.4) containing 0.1 mM PMSF, 1 mM EDTA, 0.2% bovine serum albumin].
The reaction was stopped by fast filtration on a glass filter (GF/B, Wattman, USA) by Cell Harvestor (290 PHD, Cambridge-Technology, Great Britain), and the filter was three times washed with 50 mM Tris-HCl buffer (pH 7.4). Radio activity remained on the filter was assayed by a gamma counter.

Row | Compound | Binding Activity on ET Receptor (R. act.) ETA [1] | Binding Activity on ET Receptor (R. act.) ET8 *2 [2]
1 | CC(C)C[C@@H]1NC(=O)[C@@H](CC(C)C)NC(=O)[C@H](CC(=O)O)NC(=O)[C@H](CCCNC(=O)Cc2c[nH]c3ccccc23)NC(=O)[C@@H](CC(=O)O)NC(=O)[C@@H](Cc2c[nH]c3ccccc23)NC1=O [Example 82, cyclo[-D-Asp-Orn(COCH2 -Ind)-Asp-D-Leu-Leu-D-Trp-]] (cyclo(D[dL]L[dW][dD][Orn](X3))) | 240 | 500
2 | CC(C)C[C@@H]1NC(=O)[C@@H](CC(C)C)NC(=O)[C@H](CC(=O)O)NC(=O)[C@H](C(C)C)NC(=O)[C@@H](CC(=O)O)NC(=O)[C@@H](Cc2c[nH]c3ccccc23)NC1=O [Example 17, Cyclo[--D--Asp--Val--Asp--D--Leu--Leu--D--Trp--]] (cyclo(D[dL]L[dW][dD]V)) | 3.7 | 22
3 | CC(C)C[C@@H]1NC(=O)[C@@H](C(C)(C)C)NC(=O)[C@H](CC(=O)O)NC(=O)[C@H](Cc2c[nH]c3ccccc23)NC(=O)[C@@H](CC(=O)O)NC(=O)[C@@H](Cc2c[nH]c3ccccc23)NC1=O [Example 53, cyclo[-D-Asp-Trp-Asp-D-tLeu-Leu-D-Trp-]] (cyclo(D[dTle]L[dW][dD]W)) | 64 | 460
4 | CC(C)C[C@@H]1NC(=O)[C@@H](CC(C)C)NC(=O)[C@H](CC(=O)O)NC(=O)[C@H](Cc2c[nH]c3ccccc23)N(C)C(=O)[C@@H](CC(=O)O)NC(=O)[C@@H](Cc2c[nH]c3ccccc23)NC1=O [Example 67, Cyclo[--D--Asp--N--MeTrp--Asp--D--Leu--Leu--D--Trp--]] (cyclo(D[dL]L[dW][dD][NMeW])) | 9.1 | 30
5 | CC(C)C[C@@H]1NC(=O)[C@@H](CC(C)C)NC(=O)[C@H](Cc2c[nH]c3ccccc23)NC(=O)[C@H](CC(=O)O)NC(=O)[C@@H](CC(=O)O)NC(=O)[C@@H](Cc2c[nH]c3ccccc23)NC1=O [Example 33, Cyclo[--D--Asp--Asp--Trp--D--Leu--Leu--D--Trp--]] (cyclo(DW[dL]L[dW][dD])) | 2.9 | 5.6
6 | CC(C)C[C@@H]1NC(=O)[C@H](CC(=O)O)NC(=O)[C@@H](CC(=O)O)NC(=O)[C@@H](Cc2c[nH]c3ccccc23)NC(=O)[C@H](CC(C)C)NC(=O)[C@@H](CC(C)C)NC1=O [Example 32, Cyclo[--D--Asp--Asp--Leu--D--Leu--Leu--D--Trp--]] (cyclo(DL[dL]L[dW][dD])) | 4.0 | 7.7
7 | Cyclo[--D--Asp--D,L-Tic--Asp--D--Leu--Leu--D--Trp--] [Example 86] | 38 | 240
8 | CC(C)C[C@@H]1NC(=O)[C@@H](CC(C)C)NC(=O)[C@H](CC(=O)O)NC(=O)[C@H](Cc2c[nH]cn2)NC(=O)[C@@H](CC(=O)O)NC(=O)[C@@H](Cc2c[nH]c3ccccc23)NC1=O [Example 83, Cyclo[--D--Asp--His--Asp--D--Leu--Leu--D--Trp--]] (cyclo(D[dL]L[dW][dD]H)) | 15 | 43
9 | CC(C)C[C@@H]1NC(=O)[C@@H](CC(C)C)NC(=O)[C@H](CC(=O)O)NC(=O)[C@H](Cc2ccccc2)NC(=O)[C@@H](CC(=O)O)NC(=O)[C@@H](Cc2c[nH]c3ccccc23)NC1=O [Example 19, Cyclo[--D--Asp--Phe--Asp--D--Leu--Leu--D--Trp--]] (cyclo(D[dL]L[dW][dD]F)) | 8.3 | 7.1
10 | CC(C)C[C@@H]1NC(=O)[C@@H](CC(C)C)NC(=O)[C@H](CC(=O)O)NC(=O)CN(C)C(=O)[C@@H](CC(=O)O)NC(=O)[C@@H](Cc2c[nH]c3ccccc23)NC1=O [Example 46, Cyclo[--D--Asp--Sar--Asp--D--Leu--Leu--D--Trp--]] (cyclo(D[dL]L[dW][dD][Sar])) | 8.1 | 75
11 | CC(C)C[C@@H]1NC(=O)[C@@H](CC(C)C)NC(=O)[C@H](CC(=O)O)NC(=O)[C@H](CCCNC(=O)Cc2ccccc2)NC(=O)[C@@H](CC(=O)O)NC(=O)[C@@H](Cc2c[nH]c3ccccc23)NC1=O [Example 80, cyclo[-D-Asp-Orn(COCH2 Ph)-AsP-D-Leu-Leu-D-Trp-]] (cyclo(D[dL]L[dW][dD][Orn](PhAc))) | 260 | 380
12 | CC(C)C[C@@H]1NC(=O)[C@@H](CC(C)C)NC(=O)[C@@H]2CCCN2C(=O)[C@H](CC(=O)O)NC(=O)[C@@H](CC(=O)O)NC(=O)[C@@H](Cc2c[nH]c3ccccc23)NC1=O [Example 30, Cyclo[--D--Asp--Asp--Pro--D--Leu--Leu--D--Trp--]] (cyclo(DP[dL]L[dW][dD])) | 4.4 | 9.1
13 | CC(C)C[C@@H]1NC(=O)[C@@H](CC(C)C)NC(=O)[C@H](CC(=O)O)NC(=O)[C@H](CC(C)C)N(C)C(=O)[C@@H](CC(=O)O)NC(=O)[C@@H](Cc2c[nH]c3ccccc23)NC1=O [Example 47, Cyclo[--D--Asp--N--MeLeu--Asp--D--Leu--Leu--D--Trp--]] (cyclo(D[dL]L[dW][dD][NMeL])) | 6.8 | 17
14 | CC(C)C[C@@H]1NC(=O)[C@@H](CC(C)C)NC(=O)[C@H](CC(=O)O)NC(=O)[C@H](Cc2ccccc2)N(C)C(=O)[C@@H](CC(=O)O)NC(=O)[C@@H](Cc2c[nH]c3ccccc23)NC1=O [Example 48, Cyclo[--D--Asp--N--MePhe--Asp--D--Leu--Leu--D--Trp--]] (cyclo(D[dL]L[dW][dD][NMeF])) | 2.7 | 13
15 | CC(C)C[C@@H]1NC(=O)[C@@H](CC(C)C)NC(=O)[C@H](CC(=O)O)NC(=O)[C@H](CC(C)C)NC(=O)[C@@H](CC(=O)O)NC(=O)[C@@H](Cc2c[nH]c3ccccc23)NC1=O [Example 18, Cyclo[--D--Asp--Leu--Asp--D--Leu--Leu--D--Trp--]] (cyclo(D[dL]L[dW][dD]L)) | 13 | 2.2
16 | CC(C)C[C@@H]1NC(=O)[C@@H](CC(C)C)NC(=O)[C@H](CC(=O)O)NC(=O)[C@H]2CCCN2C(=O)[C@@H](CC(=O)O)NC(=O)[C@@H](Cc2c[nH]c3ccccc23)NC1=O [Example 24, Cyclo[--D--Asp--D--Pro--Asp--D--Leu--Leu--D--Trp--]] (cyclo(D[dL]L[dW][dD][dP])) | 1.7 | –
17 | CC(C)C[C@@H]1NC(=O)[C@@H](CC(C)C)NC(=O)[C@H]2CCCN2C(=O)[C@H](CC(=O)O)NC(=O)[C@@H](CC(=O)O)NC(=O)[C@@H](Cc2c[nH]c3ccccc23)NC1=O [Example 31, Cyclo[--D--Asp--Asp--D--Pro--D--Leu--Leu--D--Trp--]] (cyclo(D[dP][dL]L[dW][dD])) | 2.6 | 1.0
